Columns and labels:
[1] = system: extensor tonic convulsions; test: Electroshock induced convulsion inhibition assay (E.S.); type: in vivo, mice (Cox standard strain albino male); conditions: Mus musculus, 1 h; oral dose (gavage); mice; 60 min after administration; 0.1 second, 50 milliampere electroshock through corneal electrodes; inhibition of extensor tonic convulsions in half of the animals
Excerpt: The compounds of Formula I are anticonvulsant agents with a high therapeutic ratio and long half-life and are therefore useful in the treatment and prevention of convulsions in mammals. In particular, the compounds are effective against tonic extensor seizures elicited by maximal electroshock and should therefore be useful for treating generalized tonic-clonic ("grand mal"), cortical focal, complex partial (temporal lobe epilepsy), simple partial (focal motor), and post-traumaticseizures in humans. […] In the electroshock induced convulsion inhibition assay (E.S.), the compound to be tested was dissolved in water (5% --sufficient hydrochloric acid was added for those compounds which were not isolated as a salt in order to effect dissolution) and administered by gavage to each of ten Cox standard strain albino male mice (18-24 g) at the dose level being investigated. Sixty minutes after compound administration, the mice were subjected to a 0.1 second, 50 milliampere electroshock through corneal electrodes. The animals were examined and evaluated immediately after the electroshock for the occurrence of clonic, flexor tonic, or extensor tonic convulsions, or death and the ED50 was determined for each compound as the dose which inhibited the occurrence of extensor tonic convulsions in one half of the animals immediately after the electroshock. For comparison, 18 milliamperes was usually sufficient to produce extensor tonic convulsions in about half of the control animals; at 50 milliamperes, almost all control animals (receiving vehicle only) died.

[2] = system: seizures; conditions: man, cited from earlier work

Row | Structure (SMILES) | ED50 [1] [mg/kg] | other results
1 | Cl.Nc1ccc(C(=O)NC2CCCc3ccccc32)cc1 (stereo not shown) [Example 7, 4-amino-N-(1,2,3,4-tetrahydro-1-naphthalenyl)benzamide hydrochloride] | 44.5 | –
2 | Nc1ccc(C(=O)NC2CCc3ccccc32)cc1 (stereo not shown) [Example 8, 4-Amino-N-(2,3-dihydro-1H-inden-1-yl)benzamide] | 31 | –
3 | C[C@H](NC(=O)c1ccc(N)cc1)c1cccc2ccccc12.Cl [Example 9, (S)-4-amino-N-[1-(1-naphthalenyl)ethyl]benzamide hydrochloride] | 110 | –
4 | Nc1ccc(C(=O)Nc2cccc3c2CCCC3)cc1 [Example 10, 4-Amino-N-(5,6,7,8-tetrahydro-1-naphthalenyl)benzamide] | 100 | –
5 | Cl.Nc1ccc(C(=O)Nc2cccc3ccccc23)cc1 [Example 11, 4-Amino-N-1-naphthalenylbenzamide hydrochloride] | 62 | –
6 | Nc1ccc(C(=O)Nc2ccc3ccccc3c2)cc1 [Example 12, 4-Amino-N-2-naphthalenylbenzamide] | > 200 | –
7 | O=C1NC(=O)C(c2ccccc2)(c2ccccc2)N1 [phenytoin] | – | plasma level at which ataxia is obvious ([2]; ataxia): 30000 ng/mL; plasma level at which lethargy is apparent ([2]; lethargy): about 40 mcg/ml; plasma level at which nystagmus is seen ([2]; nystagmus): around 20 mcg/ml; plasma level at which seizures are controlled [2]: ≥ 10 µg/mL

Source: patent US4632939A, “Anticonvulsant agents” (Eli Lilly and Company, priority 1985, dated 1986)
